Test results published in article PMC12162873, “Modulating phosphatase DUSP22 with BML-260 ameliorates skeletal muscle wasting via Akt independent JNK-FOXO3a repression” (EMBO Molecular Medicine, 2025).
Where “and” joins values, the source holds several entries; their conditions need not be identical. Equal values may be shown once. Read-outs that look alike come from different tables or passages of the source. Values belong to the compound of their own block, whether it stands above or below them.

Key:
C2C12 murine myotubes = experiment: RNA Seq of DUSP22 expression in Dex-treated C2C12 myotubes; type: cell-based, mouse; settings: C2C12 myotubes treated with Dex, three clusters of n = 3, replicates
Experimental: (A) DUSP22 expression in aged individuals (over 70 years, n = 15) and aged individuals diagnosed with sarcopenia (over 70 years, n = 18), p = 0.0009 (obtained from the Singapore Sarcopenia Study; (GEO accession no. GSE111016 (Migliavacca et al, [2019])). (B) DUSP22 expression in C2C12 murine myotubes treated with vehicle or dexamethasone (Dex) to induce atrophy (n = 3 each) Custer 1 (p = 0.024), Cluster 2 (p = 0.13), Cluster 3 (p = 0.0246). Expression was measured using RNA Seq. TPM=transcript per million. (C) qPCR analysis of DUSP22 expression in four models of muscle atrophy: (1) C2C12 myotubes treated with Dex (n = 5), p = 7.67E−05, (2) the TA muscle of C57BL/6 mice treated with Dex (n = 4), p = 0.09, (3) the TA muscle of young (5 months-old, n = 9) and geriatric (27 months-old, n = 8) C57BL/6 mice, p = 0.0324, (4) the TA of C57BL/6 mice after hind limb immobilization (n = 3), p = 0.018. (D) qPCR of DUSP22 expression in C2C12 myoblasts transfected with a DUSP22 CRISPR activation plasmid (DUSP22^endoOE) or control plasmid (CON^endoOE) (n = 3), p = 0.0022. (E) Fast myosin (MYH2) immunocytochemistry of CON^endoOE and DUSP22^endoOE myoblasts after 96 h culture in DM (scale bar = 100 µm). (F) Fusion index (n = 6). (G) Differentiation index (n = 6), p = 9.91E−09. […]

C57BL/6J mice = experiment: Dex treatment mouse model of skeletal muscle atrophy, BML-260 treatment; type: in vivo; settings: TA muscle of C57BL/6 mice treated with Dex, Vehicle average = 1, n = 4
[1] = Pharmacokinetics analysis, TA muscle (LC-MS/MS); type: in vivo, mouse; settings: for concentration at 0.5 h / concentration at 1 h / concentration at 1.5 h / concentration at 2 h / concentration at 6 h: male, C57BL/6J, mouse, tibialis anterior (TA) muscle, intraperitoneal, 5 mg/kg
Experimental: Assessment of BML-260 pharmacokinetics (PK) was carried out by the company Chaon, Yongin-si, Republic of Korea. BML-260 was administered intraperitoneally at a dose of 5 mg/kg in an injection volume of 10 mL/kg. A total of 21 6-week-old male C57BL/6J mice were divided into two groups as follows: 1) PK (plasma) group (3 mice) and 2) PK (TA muscle) group (18 mice across 6 time points).
For the PK (plasma) group, blood samples were collected at 0.5, 1, 1.5, 2, 6, 12, and 24 h after administration, using orbital sinus collection. Blood was centrifuged to obtain plasma that was then stored at −80 °C. For the PK (TA muscle) group, mice were euthanized at 0.5, 1, 1.5, 2, 6, and 12 h post-administration. The TA muscle was weighed and stored at −80 °C.
BML-260 levels in plasma and tissue samples were analyzed with liquid chromatography-tandem mass spectrometry (LC-MS/MS) using an Agilent 1200 HPLC system coupled with an AB Sciex 4000 QTrap MS/MS (Agilent Technologies, CA, USA). Quantification limits were determined based on a signal-to-noise ratio greater than 10, with precision below 20% and accuracy between 80% and 120%.

[2] = 5 mg/kg IP, as read by referee #2

SMILES: C[C@@H]1C[C@H]2[C@@H]3CCC4=CC(=O)C=C[C@]4(C)[C@@]3(F)[C@@H](O)C[C@]2(C)[C@@]1(O)C(=O)CO [Dex, dexamethasone]
DUSP22 expression, RNA Seq (C2C12 murine myotubes): 18.5715 TPM and 15.8769 TPM and 15.1133 TPM and 25.7965 TPM and 17.3247 TPM and 20.9604 TPM and 20.6804 TPM and 15.7123 TPM and 15.7246 TPM
DUSP22 expression, qPCR, Average (C57BL/6J mice): 1.655

Muscle Conc. ([1]; 5 mg/kg (IP), 0.5 h, TA muscle, dilution factor 4, individual animals): 0.350 µg/g and 0.280 µg/g
Muscle Conc. before dilution factor ([1]; 5 mg/kg (IP), 0.5 h, TA muscle, individual animals): 87.62 ng/mL and 70.09 ng/mL
Muscle Conc. ([1]; 5 mg/kg (IP), 1 h, TA muscle, dilution factor 4, individual animals): 0.335 µg/g and 0.367 µg/g
Muscle Conc. before dilution factor ([1]; 5 mg/kg (IP), 1 h, TA muscle, individual animals): 83.78 ng/mL and 91.76 ng/mL
Muscle Conc. ([1]; 5 mg/kg (IP), 1.5 h, TA muscle, dilution factor 4, individual animals): 0.220 µg/g and 0.191 µg/g
Muscle Conc. before dilution factor ([1]; 5 mg/kg (IP), 1.5 h, TA muscle, individual animals): 54.90 ng/mL and 47.79 ng/mL
Muscle Conc. ([1]; 5 mg/kg (IP), 2 h, TA muscle, dilution factor 4, individual animals): 0.165 µg/g and 0.133 µg/g
Muscle Conc. before dilution factor ([1]; 5 mg/kg (IP), 2 h, TA muscle, individual animals): 41.20 ng/mL and 33.33 ng/mL
Muscle Conc. ([1]; 5 mg/kg (IP), 6 h, TA muscle, dilution factor 4, individual animals): 0.013 µg/g and 0.024 µg/g
Muscle Conc. before dilution factor ([1]; 5 mg/kg (IP), 6 h, TA muscle, individual animals): 3.25 ng/mL and 5.89 ng/mL
Muscle Conc. ([1]; 5 mg/kg (IP), 12 h, TA muscle, dilution factor 4, individual animals): BQL
Muscle Conc. before dilution factor ([1]; 5 mg/kg (IP), 12 h, TA muscle, individual animals): 1.21 ng/mL and 0.79 ng/mL and 1.75 ng/mL
Muscle Conc., Mean ([1]; 5 mg/kg (IP), 12 h, TA muscle, n = 3): BQL
delay until peak detection in skeletal muscle (tibialis anterior) ([1]; 5 mg/kg IP): approximately 20 min
peak muscle level [1, 2]: ~ 0.35 ug/g tissue
time of peak muscle level [1, 2]: ~ 1 hour
half maximal inhibitor concentration in muscle ([1]; crude estimate of referee #2 with 1 g tissue = 1 ml): ~ 0.5 uM
concentration at 0.5 h ([1]; 5 mg/kg (IP), 0.5 h, TA muscle, dilution factor 4, individual animals, read-out: Muscle Conc.): 338 ng/g
concentration at 0.5 h ([1]; 5 mg/kg (IP), 0.5 h, TA muscle, individual animals, read-out: Muscle Conc. before dilution factor): 84.6 ng/mL
concentration at 0.5 h ([1]; 5 mg/kg (IP), 0.5 h, TA muscle, n = 3, read-out: Muscle Conc., Mean): 323 ng/g
concentration at 1 h ([1]; 5 mg/kg (IP), 1 h, TA muscle, dilution factor 4, individual animals, read-out: Muscle Conc.): 347 ng/g
concentration at 1 h ([1]; 5 mg/kg (IP), 1 h, TA muscle, individual animals, read-out: Muscle Conc. before dilution factor): 86.7 ng/mL
concentration at 1 h ([1]; 5 mg/kg (IP), 1 h, TA muscle, n = 3, read-out: Muscle Conc., Mean): 350 ng/g
concentration at 1.5 h ([1]; 5 mg/kg (IP), 1.5 h, TA muscle, dilution factor 4, individual animals, read-out: Muscle Conc.): 231 ng/g
concentration at 1.5 h ([1]; 5 mg/kg (IP), 1.5 h, TA muscle, individual animals, read-out: Muscle Conc. before dilution factor): 57.7 ng/mL
concentration at 1.5 h ([1]; 5 mg/kg (IP), 1.5 h, TA muscle, n = 3, read-out: Muscle Conc., Mean): 214 ng/g
concentration at 2 h ([1]; 5 mg/kg (IP), 2 h, TA muscle, dilution factor 4, individual animals, read-out: Muscle Conc.): 166 ng/g
concentration at 2 h ([1]; 5 mg/kg (IP), 2 h, TA muscle, individual animals, read-out: Muscle Conc. before dilution factor): 41.5 ng/mL
concentration at 2 h ([1]; 5 mg/kg (IP), 2 h, TA muscle, n = 3, read-out: Muscle Conc., Mean): 155 ng/g
concentration at 6 h ([1]; 5 mg/kg (IP), 6 h, TA muscle, dilution factor 4, individual animals, read-out: Muscle Conc.): 16 ng/g
concentration at 6 h ([1]; 5 mg/kg (IP), 6 h, TA muscle, individual animals, read-out: Muscle Conc. before dilution factor): 3.9 ng/mL
concentration at 6 h ([1]; 5 mg/kg (IP), 6 h, TA muscle, n = 3, read-out: Muscle Conc., Mean): 17 ng/g
SMILES: O=C(O)c1ccc(N2C(=O)C(=Cc3ccccc3)SC2=S)cc1 (stereo in doubt) [BML-260]
skeletal muscle level relative to that needed for enzyme inhibition ([1]; 5 mg/kg IP): may not reach levels where it can function as an enzymatic inhibitor
